Data set [1] concerns SCID mice reconstituted with CD4^+CD45RB^HI T cells. Put plainly: SCID-IBD mouse model, treatment from day 1 for 4 weeks. The format is in vivo. As to conditions: 3 and 10 mg/kg/day p.o., steroid-related. The text has this:
A well-established animal model for IBD exists (see Leach et al., Am. J. Pathol., Vol. 148, No. 5, pp. 1503-1515 (1996), and Powrie et al., Int. Immunol., Vol. 5, No. 11, pp. 1461-1471 (1993)). It is known that the transfer of syngeneic, naive T lymphocytes (CD4^+CD45RB^HI) into SCID mice results in a severe colitis and wasting disease, SCID-IBD. Histopathologically, features of both CD and UC are represented in this model which has been used throughout the 1990s to bring the understanding of the pathoetiology of this disease of immune dysregulation in man to its present status. There is no other animal model of IBD which is considered relevant for the human disease, both in mechanism and in validity of clinical treatment.
In this study, SCID mice reconstituted with CD4^+CD45RB^HI T lymphocytes were used. These mice are known to develop chronic colitis with characteristics similar to human IBD, as described above.
In this study, SCID mice were reconstituted with 2 x 10^5 CD4^+CD45RB^HI T cells and then treated with pimecrolimus (30, 60 and 100 mg/kg/day) or vehicle daily p.o. for 4 weeks. […] BW was monitored throughout. On termination, blood was withdrawn, spleen, mesenteric lymph nodes (MLN) and colon were removed. Serum haptoglobin levels were measured (ELISA), colitis was assessed histologically and lymphocyte and neutrophil numbers were calculated from FACS analysis of blood, spleen and MLN cell suspensions.
In order to determine the efficacy of ASM981 treatment in preventing intestinal mucosal damage in SCID-IBD mice, a histological examination of the colon sections was performed according to defined morphological parameters. All colon sections were assessed according to a scheme awarding degrees of severity governed by the extent of cell infiltration and inflammation with a score of 8 being the maximum.

A short description of another data set: in vivo. The arrangement: species or system rats. The following applies: rat, skin; 2 oral doses of 25 mg/kg in an interval of 2 hours; 6 hours after the last dosing; read-out: skinlblood concentration ratio. On the procedure:
In another study designed to explore the differences between pimecrolimus and FK506 and to determine whether these differences might be associated with a different tissue distribution, the exposure to pimecrolimus and FK506 in various organs after oral administration were measured. Animals received 2 oral doses of 25 mg/kg in an interval of 2 hours. […] Pimecrolimus was found consistently to have a higher skinlblood concentration ratio than FK506 (2 hours: 7.3 vs. 2.8; 6 hours: 13 vs. 1.6; 24 hours: 36 vs. 6.0). The AUC0-24h in skin calculated for pimecrolimus was twice as high as with FK506.
These distribution characteristics are relevant not only for oral, but also for topical application, as the compound enters systemic circulation after permeation through the skin.

Consider `C[C@@H]1C[C@H]2[C@@H]3CCC4=CC(=O)C=C[C@]4(C)[C@@]3(F)[C@@H](O)C[C@]2(C)[C@@]1(O)C(=O)CO` [Dexamethasone, reference compound], for which the “effect on BW” value in data set [1] is “accelerated loss in BW”.
Regarding `C=CC[C@@H]1/C=C(\C)C[C@H](C)C[C@H](OC)[C@H]2O[C@@](O)(C(=O)C(=O)N3CCCC[C@H]3C(=O)O[C@H](/C(C)=C/[C@@H]3CC[C@@H](O)[C@H](OC)C3)[C@H](C)[C@@H](O)CC1=O)[C@H](C)C[C@@H]2OC` [FK506, tacrolimus, reference compound], the Kp at 6 h in the data set “in vivo” was found to be 1.6.

(Values after patent EP1649856A2, “Use of pimecrolimus for selective immunomodulation” (Novartis AG, priority 2001, dated 2002).)
